This is an account of results in patent publication US4948783A, “Anticariogenic or antiperidontitic method” (Kabushiki Kaisya Advance Kaihatsu kenkyujo, priority 1985, dated 1990).

In brackets after ≈: the same amount, converted by molar mass. Read-outs that look alike come from different tables or passages of the source. Bounds are passed on as bounds.

The test system of one test is S. mutans. The test is described as follows: Antibacterial activity (MIC) against S. mutans. Type of test: cell-based, Streptococcus mutans (isolated from a human oral cavity). Particulars: Streptococcus mutans. Here is the method: (§1) A sample of vitamin L2 (methylthioadenosine) (Sigma Chemical Company) having the chemical formula shown below was dissolved in water, [drawing 3] the pH was adjusted to 7, and sterilization was carried out by autoclaving at 121° C. for 15 min or by filtration with membrane filters, to form a sterile solution. This sample solution mentioned above was added into a sterile basal medium (refer to Table 1) together with sterile distilled water to adjust the concentration of the sample. To this medium, S. mutans causing dental caries, Actinomyces naeslundii and A. viscosus causing dental caries and periondontitis, and B. gingivalis and Fusobacterium nucleatum causing periodontitis, each bacterium being isolated from a human oral cavity, were repectively inoculated. After incubation at 37° C. for 24 hrs, the MIC (minimal growth-inhibitoryconcentration: μg/ml) against each bacterium was determined. As a control, a 0.85% NaCl solution was used instead of the sample solution of vitamin L2. Furthermore, the effect of vitamin L2 on intestinal bacteria such as S. faecium, S. faecalis, Bifidobacterium bifidum, Lactobacillus acidophilus, and L. fermentum, isolated from the feces of healthy humans, was also determined by the same procedures.

A further test concerns B. gingivalis. The test is described as follows: Antibacterial activity (MIC) against B. gingivalis. Particulars: for MIC: Porphyromonas gingivalis. Type of test: cell-based, Bacteroides gingivalis (isolated from a human oral cavity). As to the method:
as §1

In a further test the test system is A. naeslundii. The test is described as follows: Antibacterial activity (MIC) against A. naeslundii. Type of test: cell-based, Actinomyces naeslundii (isolated from a human oral cavity). Particulars: Actinomyces naeslundii, Brain heart infusion broth, 37° C., 24 hrs, read-out: MIC (minimal growth-inhibitory concentration). Here is the method:
as §1

The next test has as its system A. viscosus. The test is described as follows: Antibacterial activity (MIC) against A. viscosus. Type of test: cell-based, A. viscosus (isolated from a human oral cavity). Particulars: Actinomyces viscosus, Brain heart infusion broth, 37° C., 24 hrs, read-out: MIC (minimal growth-inhibitory concentration). As to the method: as §1
Another test concerns F. nucleatum. The test is described as follows: Antibacterial activity (MIC) against F. nucleatum. Type of test: cell-based, Fusobacterium nucleatum (isolated from a human oral cavity). Particulars: Fusobacterium nucleatum, GAM broth, 37° C., 24 hrs, read-out: MIC (minimal growth-inhibitory concentration). Here is the method:
as §1

The test system of a further test is S. faecium. Briefly: Effect on intestinal bacteria (MIC), S. faecium. Type of test: cell-based, S. faecium (isolated from the feces of healthy humans). The conditions noted are these: Enterococcus faecium, Todd-Hewitt broth, 37° C., 24 hrs, read-out: MIC (minimal growth-inhibitory concentration). Here is the method:
as §1

The test system of the next test is S. faecalis. Briefly: Effect on intestinal bacteria (MIC), S. faecalis. Type of test: cell-based, S. faecalis (isolated from the feces of healthy humans). Particulars: Enterococcus faecalis, Todd-Hewitt broth, 37° C., 24 hrs, read-out: MIC (minimal growth-inhibitory concentration). Here is the method: as §1
The subject of the next test is Bif. bifidum. The test is described as follows: Effect on intestinal bacteria (MIC), Bif. bifidum. Type of test: cell-based. The conditions noted are these: Bifidobacterium bifidum, GAM broth, 37° C., 24 hrs, read-out: MIC (minimal growth-inhibitory concentration). Here is the method: as §1
A further test concerns L. acidophilus. Briefly: Effect on intestinal bacteria (MIC), L. acidophilus. Type of test: cell-based. The conditions noted are these: Lactobacillus acidophilus, Rogosa broth, 37° C., 24 hrs, read-out: MIC (minimal growth-inhibitory concentration). Here is the method:
as §1

A further test relates to L. fermentum. Briefly: Effect on intestinal bacteria (MIC), L. fermentum. Type of test: cell-based, L. fermentum (isolated from the feces of healthy humans). Particulars: Limosilactobacillus fermentum, Rogosa broth, 37° C., 24 hrs, read-out: MIC (minimal growth-inhibitory concentration). As to the method:
as §1

Setting [1] is: 24 h, S. mutans, same procedures as in Example 1, read-out: MIC, S. mutans (Table 3).
Where [2] appears, read: 24 h, B. gingivalis, same procedures as in Example 1, read-out: MIC, B. gingivalis (Table 3).
The mark [3] stands for this setting: 24 h, read-out: MIC, S. mutans (Table 3).

As to `C[C@H]1O[C@@H](n2cnc3c(N)ncnc32)[C@H](O)[C@@H]1O` [Material (8), 5'-deoxyadenosine], the MIC in the test on S. mutans (setting [1]) amounted to 1000 µg/mL (≈ 3980 µM); in the test with B. gingivalis (setting [2]) it was 125 µg/mL (≈ 498 µM).

With `Nc1ncnc2c1ncn2[C@@H]1O[C@H](CO)[C@@H](O)[C@@H]1O` [Material (7), spongoadenosine], the MIC in the test on S. mutans (setting [3]) is 1500 µg/mL (≈ 5610 µM); in the test on B. gingivalis (24 h, read-out: MIC, B. gingivalis (Table 3)), 16 µg/mL (≈ 59.9 µM).

In the case of `CSC[C@H]1O[C@@H](n2cnc3c(N)ncnc32)[C@H](O)[C@@H]1O` [vitamin L2, methylthioadenosine], the MIC in the test with S. mutans (S. mutans, Todd-Hewitt broth, 37° C., 24 hrs, read-out: MIC (minimal growth-inhibitory concentration)) was 63 µg/mL (≈ 212 µM); with A. naeslundii it was 32 µg/mL (≈ 108 µM); with A. viscosus, 63 µg/mL (≈ 212 µM); in the test on B. gingivalis (B. gingivalis, GAM broth, 37° C., 24 hrs, read-out: MIC (minimal growth-inhibitory concentration)), 125 µg/mL (≈ 420 µM); in the test with F. nucleatum it was 500 µg/mL (≈ 1680 µM); in the test with S. faecium it was above 1000 µg/mL. Further, the MIC was above 1000 µg/mL in the test on S. faecalis, above 1000 µg/mL in the test on Bif. bifidum, above 1000 µg/mL in the test with L. acidophilus and 1000 µg/mL (≈ 3360 µM) with L. fermentum.

As for `Nc1ncnc2c1ncn2[C@@H]1O[C@H](CCl)[C@@H](O)[C@H]1O` [Material (1), 5'-deoxy-5'-chloroadenosine], the MIC turned out to be 250 µg/mL (≈ 875 µM) in the test with S. mutans (setting [1]) and 125 µg/mL (≈ 438 µM) in the test on B. gingivalis (setting [2]).

Turning to `OC[C@H]1O[C@@H](n2cnc3c(NCc4ccccc4)ncnc32)[C@H](O)[C@@H]1O` [Material (3), N-6 benzyladenosine], the MIC in the test on S. mutans (setting [1]) came to 1000 µg/mL (≈ 2800 µM); in the test on B. gingivalis (setting [2]), 250 µg/mL (≈ 700 µM).

As to `Nc1ncnc2c1ncn2[C@@H]1O[C@H](CO)[C@@H](O)[C@H]1O` [Material (6), adenosine], the MIC in the test on S. mutans (setting [3]) is 1000 µg/mL (≈ 3740 µM). Besides, in the test with B. gingivalis (B. gingivalis, same procedures as in Example 1), the “MIC, B. gingivalis (Table 3)” value is reported as “No inhibition”.

Consider `CNc1ncnc2c1ncn2[C@@H]1O[C@H](CO)[C@@H](O)[C@H]1O` [Material (2), N-6 methyladenosine], for which the MIC stood at 1000 µg/mL (≈ 3560 µM) with S. mutans (setting [1]) and 250 µg/mL (≈ 889 µM) with B. gingivalis (setting [2]).

In the case of `CC(C)CSC[C@H]1O[C@@H](n2cnc3c(N)ncnc32)[C@H](O)[C@@H]1O` [Material (5), (5'-deoxy) isobutylthioadenosine], the MIC with S. mutans (setting [1]) was 1500 µg/mL (≈ 4420 µM); in the test with B. gingivalis (setting [2]), 250 µg/mL (≈ 737 µM).

As to `Nc1nc(Cl)nc2c1ncn2[C@@H]1O[C@H](CO)[C@@H](O)[C@H]1O` [Material (4), 2-chloroadenosine], the results for the MIC in the test with S. mutans (setting [1]) and with B. gingivalis (setting [2]) were 1000 µg/mL (≈ 3310 µM) and 250 µg/mL (≈ 829 µM), respectively.
